Results published in patent US8497278B2, “Imidazo[1,2-a]pyridine compounds” (priority 2008, dated 2013).

Tests used:
[1] = target: T1, α1 subtype containing GABA-A receptors (Homo sapiens, UniProt P14867+P18507); experiment: Two-electrode voltage clamp electrophysiology in Xenopus oocytes, potentiation of GABA EC20 response, α1; assay type: cell-based; details: 100 nM compound; for activation at 0.1 µM: read-out: Percentage of potentiation alpha1
T1 construct: expressed in transfected cells; host or cells: Xenopus laevis oocytes, cRNA injected
T1 sequence (P14867 28-456): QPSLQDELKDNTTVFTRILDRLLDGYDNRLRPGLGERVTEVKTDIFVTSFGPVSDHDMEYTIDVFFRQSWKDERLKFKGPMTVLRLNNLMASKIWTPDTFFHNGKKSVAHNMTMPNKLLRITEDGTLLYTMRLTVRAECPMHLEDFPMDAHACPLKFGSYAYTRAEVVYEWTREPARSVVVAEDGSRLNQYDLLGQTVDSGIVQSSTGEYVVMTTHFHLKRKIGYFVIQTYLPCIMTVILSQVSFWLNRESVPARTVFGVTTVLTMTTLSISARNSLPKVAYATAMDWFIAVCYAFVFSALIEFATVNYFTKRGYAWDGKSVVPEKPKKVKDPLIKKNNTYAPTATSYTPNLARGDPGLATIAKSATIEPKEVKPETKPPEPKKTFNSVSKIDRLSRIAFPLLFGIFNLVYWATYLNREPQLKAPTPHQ
T1 sequence (P28472 26-473 partner): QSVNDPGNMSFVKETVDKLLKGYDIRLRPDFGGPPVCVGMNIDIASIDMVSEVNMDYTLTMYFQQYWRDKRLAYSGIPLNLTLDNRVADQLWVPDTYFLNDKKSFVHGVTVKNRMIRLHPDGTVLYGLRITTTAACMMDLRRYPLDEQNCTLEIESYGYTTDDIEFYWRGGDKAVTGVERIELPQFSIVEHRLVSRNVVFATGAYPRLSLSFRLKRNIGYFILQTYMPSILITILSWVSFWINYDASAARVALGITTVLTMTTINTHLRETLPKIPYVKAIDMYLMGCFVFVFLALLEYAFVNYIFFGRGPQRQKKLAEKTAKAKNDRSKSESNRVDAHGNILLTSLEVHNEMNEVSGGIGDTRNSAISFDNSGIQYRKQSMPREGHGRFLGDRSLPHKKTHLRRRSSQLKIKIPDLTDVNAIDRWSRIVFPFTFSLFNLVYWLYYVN
T1 sequence (P18507 40-475): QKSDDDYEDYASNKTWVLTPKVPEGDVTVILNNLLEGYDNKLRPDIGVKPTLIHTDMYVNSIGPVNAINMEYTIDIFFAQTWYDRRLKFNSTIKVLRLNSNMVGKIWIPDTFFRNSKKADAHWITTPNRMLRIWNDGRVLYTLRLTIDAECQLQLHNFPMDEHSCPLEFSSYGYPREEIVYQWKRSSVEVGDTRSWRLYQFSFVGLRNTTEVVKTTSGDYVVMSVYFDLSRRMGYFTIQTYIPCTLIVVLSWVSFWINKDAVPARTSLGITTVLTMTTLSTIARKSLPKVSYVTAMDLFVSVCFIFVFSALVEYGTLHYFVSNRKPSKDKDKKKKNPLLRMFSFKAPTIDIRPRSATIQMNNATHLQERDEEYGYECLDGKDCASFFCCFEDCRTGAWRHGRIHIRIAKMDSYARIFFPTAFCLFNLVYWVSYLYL
Method: (§1) Electrophysiology protocol: Oocytes were prepared from adult female Xenopus laevis frogs. cRNA encoding human α1, α2, α3, α5, β3 and γ2L GABAA receptor subunits was injected into the cytoplasm of stage 5 or 6 oocytes using the Robocyte Robot (Multi Channel Systems, Reutlingen, Germany). Two-electrode voltage clamp recordings were made in 96-well plates using the Robocyte Robot. Oocytes were impaled using recording heads with two glass electrodes containing 1.5 M potassium acetate and 0.5 M KCl and held at a membrane potential of −80 mV. Oocytes were continually perfused with a ND96 solution (96 mM NaCl, 2 mM KCl, 0.1 mM CaCl2, and 5 mM HEPES, pH 7.5) using a Gilson 222 XL Liquid Handler and Gilson Minipuls 3 Peristaltic Pump (Gilson Medical Electronics, Middleton, Wis., USA). The protocol consisted of three 20-s applications of GABA that gave a 20% of the maximum response (EC20: 60 μM) to allow for headroom to determine a baseline GABA response. To assess the potentiation, oocytes were first exposed to a single 1 μM chlordiazepoxide (CDP) as a potentiation standard. Oocytes with insufficient expression levels (currents below threshold) or insufficient γ2L subunit incorporation (judged by rapid desensitization upon GABA application, or by insufficient potentiation by CDP) were not included in analysis. Following this control application, a given oocyte was exposed to test compounds at 100 nM concentrations. Only one concentration of one compound was tested per oocyte. […] One skilled in the art will recognize that subtypes contribute to the effects of GABA-A modulators. Such that compounds favoring different subtypes can have different therapeutic effects. The magnitude of modulation, for example, partial modulators can influence the effects in vivo. “++” indicates a greater modulation that “+” so that at any given subtype “++” inducates a greater amount of modulation for that subtype. In some embodiments, modulation favoring alpha 1 relative to alpha2 and/or alpha 3 can have sedative hypnotic effects. In other embodiments, compounds with reduced selectivity of alpha 1 can express anxiolytic effects with less sedation. Compounds with selectivity for alpha 5 can have memory/cognition enhancing effects.

[2] = target: T2, α2 subtype containing GABA-A receptors (Homo sapiens, UniProt P18507+P47869); experiment: Two-electrode voltage clamp electrophysiology in Xenopus oocytes, potentiation of GABA EC20 response, α2; assay type: cell-based; details: 100 nM compound; for activation at 0.1 µM: read-out: Percentage of potentiation alpha2
T2 construct: expressed in transfected cells; host or cells: Xenopus laevis oocytes, cRNA injected
T2 sequence (P47869 29-451): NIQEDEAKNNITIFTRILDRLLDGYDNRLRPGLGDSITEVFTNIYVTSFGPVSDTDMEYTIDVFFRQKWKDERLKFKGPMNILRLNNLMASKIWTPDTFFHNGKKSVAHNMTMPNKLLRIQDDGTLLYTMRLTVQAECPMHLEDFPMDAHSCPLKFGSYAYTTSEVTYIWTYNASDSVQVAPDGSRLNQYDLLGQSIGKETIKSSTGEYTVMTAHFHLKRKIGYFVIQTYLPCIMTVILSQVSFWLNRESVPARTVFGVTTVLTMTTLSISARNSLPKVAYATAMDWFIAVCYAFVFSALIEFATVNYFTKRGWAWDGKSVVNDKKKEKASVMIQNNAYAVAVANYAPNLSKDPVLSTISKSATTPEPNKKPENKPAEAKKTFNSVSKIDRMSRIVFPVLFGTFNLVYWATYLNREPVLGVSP
T2 sequence (P28472 26-473 partner): as the sequence (P28472 26-473 partner) above
T2 sequence (P18507 40-475): as the sequence (P18507 40-475) above
Method: as §1

[3] = test system: central benzodiazepine receptors; experiment: Central benzodiazepine receptor binding (test of Speth et al.); details: 1000 nM of the compound
How it was run: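 Values are percent inhibition of central benzodiazepine receptor binding at 1000 nM compound (initial single-point screen at 1.0E-09, 1.0E-07 and 1.0E-05 M). Speth et al. binding test; nonspecific binding defined with excess unlabelled ligand and subtracted from total.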

SMILES	activation at 0.1 µM [1]	activation at 0.1 µM [2]	% Inhibition at 1000 nM for CBZD [3]	also measured
COC(=O)c1ncn(Cc2c(-c3ccc(Cl)cc3)nc3ccccn23)n1 [Compound 25, 1-[2-(4-Chloro-phenyl)-imidazo[1,2-a]pyridin-3-ylmethyl]-1H-[1,2,4]triazole-3-carboxylic acid methyl ester]	10 to 50%	≥ 50%		
Clc1ccc(-c2nc3ccccn3c2Cn2nnc3ccccc32)cc1 [Compound 42, 1-((2-(4-chlorophenyl)H-imidazo[1,2-a]pyridin-3-yl)methyl)-1H-benzo[d][1,2,3]triazole]				Percentage of potentiation alpha1 [1]: + (percentage of potentiation is greater than or equal to 10% but less than 50% in the presence of 100 nM of the compound); Percentage of potentiation alpha2 [2]: + (percentage of potentiation is greater than or equal to 10% but less than 50% in the presence of 100 nM of the compound)
CNC(=O)c1ncn(Cc2c(-c3ccc(Cl)cc3)nc3ccccn23)n1 [Compound 73, 1-((2-(4-chlorophenyl)imidazo[1,2-a]pyridin-3-yl)methyl)-N-methyl-1H-1,2,4-triazole-3-carboxamide]	10 to 50%	10 to 50%		
Nc1ccn(Cc2c(-c3ccc(Cl)cc3)nc3ccccn23)c(=O)n1 [Compound 106, 4-amino-1-((2-(4-chlorophenyl)imidazo[1,2-a]pyridin-3-yl)methyl)pyrimidin-2(1H)-one]	10 to 50%	10 to 50%		
CN(C)c1ccn(Cc2c(-c3ccc(Cl)cc3)nc3ccccn23)c(=O)n1 [Compound 135, 1-((2-(4-chlorophenyl)imidazo[1,2-a]pyridin-3-yl)methyl)-4-(dimethylamino)pyrimidin-2(1H)-one]		≥ 50%	++ (percentage of inhibition of central BZD site binding is greater than 80% in the presence of 1000 nM of the compound)	
Cc1ccc(-c2nc3ccc(C)cn3c2CNc2nccnn2)cc1 [Compound 145, (6-Methyl-2-p-tolyl-imidazo[1,2-a]pyridin-3-ylmethyl)-[1,2,4]triazin-3-yl-amine]	≥ 50%	10 to 50%		
Cc1ccc(-c2nc3ccc(C)cn3c2CNc2nc(C)cc(Cl)n2)cc1 [Compound 147, 4-chloro-6-methyl-N-((6-methyl-2-p-tolylimidazo[1,2-a]pyridin-3-yl)methyl)pyrimidin-2-amine]	≥ 50%		++ (percentage of inhibition of central BZD site binding is greater than 80% in the presence of 1000 nM of the compound)	
Cc1ccnc(NCc2c(-c3ccc(Cl)cc3)nc3ccccn23)n1 [Compound 157, [2-(4-Chloro-phenyl)-imidazo[1,2-a]pyridin-3-ylmethyl]-(4-methyl-pyrimidin-2-yl)-amine]	10 to 50%		++ (percentage of inhibition of central BZD site binding is greater than 80% in the presence of 1000 nM of the compound)	
Cc1cc(Cl)nc(NCc2c(-c3ccc(F)cc3)nc3ccc(Cl)cn23)n1 [Compound 162, 4-chloro-N-((6-chloro-2-(4-fluorophenyl)imidazo[1,2-a]pyridin-3-yl)methyl)-6-methylpyrimidin-2-amine]	10 to 50%		++ (percentage of inhibition of central BZD site binding is greater than 80% in the presence of 1000 nM of the compound)	
NNC(=O)c1nc(Cc2c(-c3ccc(Cl)cc3)nc3ccccn23)no1 [Compound 215, 3-((2-(4-chlorophenyl)imidazo[1,2-a]pyridin-3-yl)methyl)-1,2,4-oxadiazole-5-carbohydrazide]	-10 to 10%	10 to 50%		
NC(=O)c1nc(Cc2c(-c3ccc(Cl)cc3)nc3ccc(F)cn23)no1 [Compound 217, 3-((2-(4-chlorophenyl)-6-fluoroimidazo[1,2-a]pyridin-3-yl)methyl)-1,2,4-oxadiazole-5-carboxamide]	10 to 50%	≥ 50%		
CNC(=O)c1nc(Cc2c(-c3ccc(F)cc3)nc3ccc(Cl)cn23)no1 [Compound 218, 3-((2-(4-fluorophenyl)-6-chloroimidazo[1,2-a]pyridin-3-yl)methyl)-1,2,4-oxadiazole-5-N-methyl-carboxamide]				Percentage of potentiation alpha1 [1]: + (percentage of potentiation is greater than or equal to 10% but less than 50% in the presence of 100 nM of the compound); Percentage of potentiation alpha2 [2]: ++ (percentage of potentiation is greater than or equal to 50% in the presence of 100 nM of the compound)
CNC(=O)c1nc(Cc2c(-c3ccc(F)cc3)nc3ccc(F)cn23)no1 [Compound 221, 3-((6-fluoro-2-(4-fluorophenyl)imidazo[1,2-a]pyridin-3-yl)methyl)-N-methyl-1,2,4-oxadiazole-5-carboxamide]	-10 to 10%	10 to 50%		
O=C(NO)c1nc(Cc2c(-c3ccc(Cl)cc3)nc3ccc(F)cn23)no1 [Compound 222, 3-((2-(4-chlorophenyl)-6-fluoroimidazo[1,2-a]pyridin-3-yl)methyl)-N-hydroxy-1,2,4-oxadiazole-5-carboxamide]	-10 to 10%	≥ 50%		
O=C(NO)c1nc(Cc2c(-c3ccc(F)cc3)nc3ccc(F)cn23)no1 [Compound 223, 3-((2-(4-fluorophenyl)-6-fluoroimidazo[1,2-a]pyridin-3-yl)methyl)-N-hydroxy-1,2,4-oxadiazole-5-carboxamide]	≤ -10%	10 to 50%		
CONC(=O)c1nc(Cc2c(-c3ccc(F)cc3)nc3ccc(F)cn23)no1 [Compound 224, 3-((2-(4-fluorophenyl)-6-fluoroimidazo[1,2-a]pyridin-3-yl)methyl)-N-methyoxy-1,2,4-oxadiazole-5-carboxamide]				Percentage of potentiation alpha1 [1]: 0 (percentage of potentiation is between about 10% to about −10%); Percentage of potentiation alpha2 [2]: + (percentage of potentiation is greater than or equal to 10% but less than 50% in the presence of 100 nM of the compound)
Clc1ccc(-c2nc3ccc(Cl)cn3c2Cc2cn[nH]n2)cc1 [Compound 227, 3-((2H-1,2,3-triazol-4-yl)methyl)-6-chloro-2-(4-chlorophenyl)imidazo[1,2-a]pyridine]	≥ 50%		++ (percentage of inhibition of central BZD site binding is greater than 80% in the presence of 1000 nM of the compound)	
CC(C)c1nnc(Cc2c(-c3ccccc3)nc3ccc(Cl)cn23)[nH]1 [Compound 232, 6-chloro-3-((5-isopropyl-4H-1,2,4-triazol-3-yl)methyl)-2-phenylimidazo[1,2-a]pyridine]			++ (percentage of inhibition of central BZD site binding is greater than 80% in the presence of 1000 nM of the compound)	
CNc1nnc(Cc2c(-c3ccc(Cl)cc3)nc3ccccn23)s1 [Compound 235, 5-((2-(4-chlorophenyl)imidazo[1,2-a]pyridin-3-yl)methyl)-N-methyl-1,3,4-thiadiazol-2-amine]			+ (percentage of inhibition of central BZD site binding is greater than 50% but less than 80% in the presence of 1000 nM of the compound)	
O=c1[nH]c(Cc2c(-c3ccc(F)cc3)nc3ccc(F)cn23)no1 [Compound 236, 3-((6-fluoro-2-(4-fluorophenyl)imidazo[1,2-a]pyridin-3-yl)methyl)-1,2,4-oxadiazol-5(4H)-one]			++ (percentage of inhibition of central BZD site binding is greater than 80% in the presence of 1000 nM of the compound)	
O=C1C=C(N2CCCCC2)CN1Cc1c(-c2ccc(Cl)cc2)nc2ccccn12 [Compound 239, 1-((2-(4-chlorophenyl)imidazo[1,2-a]pyridin-3-yl)methyl)-4-(piperidin-1-yl)-1H-pyrrol-2(5H)-one]			++ (percentage of inhibition of central BZD site binding is greater than 80% in the presence of 1000 nM of the compound)	
O=C1C=C(N2CCC(O)CC2)CN1Cc1c(-c2ccc(Cl)cc2)nc2ccccn12 [Compound 241, 1-((2-(4-chlorophenyl)imidazo[1,2-a]pyridin-3-yl)methyl)-4-(4-hydroxypiperidin-1-yl)-1H-pyrrol-2(5H)-one]			++ (percentage of inhibition of central BZD site binding is greater than 80% in the presence of 1000 nM of the compound)	
CN1CCN(c2cc(Cc3c(-c4ccc(Cl)cc4)nc4ccccn34)ncn2)CC1 [Compound 244, 2-(4-chlorophenyl)-3-((6-(4-methylpiperazin-1-yl)pyrimidin-4-yl)methyl)imidazo[1,2-a]pyridine]			++ (percentage of inhibition of central BZD site binding is greater than 80% in the presence of 1000 nM of the compound)	
